One experiment addresses rat orexin 1 receptor (Rattus norvegicus, UniProt P56718). The experiment is described as follows: Rat orexin 1 receptor radioligand binding (competitive, [3H]-SB674042, HEK293 cell preparations).
Another experiment addresses human orexin 2 receptor (Homo sapiens (Human), UniProt O43614). The experiment is described as follows: Human orexin 2 receptor radioligand binding (competitive, [3H]-EMPA, HEK293 cell preparations).
The mark [1] stands for this setting: rat orexin 1 receptor, [3H]-SB674042 competition binding, read-out: rOX1 Ki (nm).
The mark [2] stands for this setting: human orexin 2 receptor, [3H]-EMPA competition binding, read-out: hOX2 Ki (nm).

SMILES strings stand for the structures. Like-named read-outs stand apart in the source and are kept apart here.

human orexin 2 receptor, sequence (O43614 whole entry): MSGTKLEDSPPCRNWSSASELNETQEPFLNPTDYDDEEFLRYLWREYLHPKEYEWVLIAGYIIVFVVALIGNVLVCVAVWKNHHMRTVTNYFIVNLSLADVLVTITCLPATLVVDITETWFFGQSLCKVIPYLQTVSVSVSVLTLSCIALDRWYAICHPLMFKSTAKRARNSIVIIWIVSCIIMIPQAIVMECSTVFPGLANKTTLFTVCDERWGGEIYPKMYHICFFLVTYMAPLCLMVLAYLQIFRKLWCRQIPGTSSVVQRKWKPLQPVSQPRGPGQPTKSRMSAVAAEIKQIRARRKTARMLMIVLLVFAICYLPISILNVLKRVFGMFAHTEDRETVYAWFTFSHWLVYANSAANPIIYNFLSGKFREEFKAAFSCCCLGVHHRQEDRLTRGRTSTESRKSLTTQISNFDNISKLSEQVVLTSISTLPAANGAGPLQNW

Consider `CCOc1ccc(C)nc1C(=O)N1C2CCC1C(COc1ccc(Br)cn1)C2` (racemic) [Example 51, (±)-(2-(((5-bromopyridin-2-yl)oxy)methyl)-7-azabicyclo[2.2.1]heptan-7-yl)(3-ethoxy-6-methylpyridin-2-yl)methanone], for which the results for the Ki on rat orexin 1 receptor (rOX1 Ki (nm)) and at human orexin 2 receptor (hOX2 Ki (nm)) were 974 nM and 1800 nM, respectively.
`O=C(c1cccc(F)c1-c1ncccn1)N1C2CCC1C(COc1ccccn1)C2` (racemic) [Example 52, (±)-(3-fluoro-2-(pyrimidin-2-yl)phenyl)(2-((pyridin-2-yloxy)methyl)-7-azabicyclo[2.2.1]heptan-7-yl)methanone]: the Ki on rat orexin 1 receptor (setting [1]) amounted to 350 nM; on human orexin 2 receptor (hOX2 Ki (nm)) it was 2300 nM.
Take `Cc1ccc(-n2nccn2)c(C(=O)N2C3CCC2C(COc2cccnn2)C3)n1` (racemic) [Example 53, (±)-(6-methyl-3-(2H-1,2,3-triazol-2-yl)pyridin-2-yl)(2-((pyridazin-3-yloxy)methyl)-7-azabicyclo[2.2.1]heptan-7-yl)methanone]: the results for the Ki on rat orexin 1 receptor (setting [1]) and at human orexin 2 receptor (hOX2 Ki (nm)) were 2200 nM and above 10000 nM, respectively.
As for `Cc1ccc(-n2nccn2)c(C(=O)N2C3CCC2C(COc2cccnc2C)C3)n1` (racemic) [Example 54, (±)-(6-methyl-3-(2H-1,2,3-triazol-2-yl)pyridin-2-yl)(2-(((2-methylpyridin-3-yl)oxy)methyl)-7-azabicyclo[2.2.1]heptan-7-yl)methanone], the Ki worked out at 3500 nM at rat orexin 1 receptor (rOX1 Ki (nm)) and 2200 nM at human orexin 2 receptor (setting [2]).
As to `Cc1ccc(-n2nccn2)c(C(=O)N2C3CCC2C(COc2ccnn2C)C3)n1` (racemic) [Example 56, (±)-(2-(((1-methyl-1H-pyrazol-5-yl)oxy)methyl)-7-azabicyclo[2.2.1]heptan-7-yl)(6-methyl-3-(2H-1,2,3-triazol-2-yl)pyridin-2-yl)methanone], the Ki on rat orexin 1 receptor (setting [1]) and at human orexin 2 receptor (hOX2 Ki (nm)) was above 10000 nM each time.
In the case of `Cc1ccc(-n2nccn2)c(C(=O)N2C3CCC2C(COc2ccncc2)C3)n1` (racemic) [Example 57, (±)-(6-methyl-3-(2H-1,2,3-triazol-2-yl)pyridin-2-yl)(2-((pyridin-4-yloxy)methyl)-7-azabicyclo[2.2.1]heptan-7-yl)methanone], the figures for the Ki at rat orexin 1 receptor (setting [1]) and at human orexin 2 receptor (setting [2]) were 1000 nM and 7300 nM, respectively.
`Cc1ccc(-n2nccn2)c(C(=O)N2C3CCC2C(COc2ncccn2)C3)n1` (racemic) [Example 59, (±)-(6-methyl-3-(2H-1,2,3-triazol-2-yl)pyridin-2-yl)(2-((pyrimidin-2-yloxy)methyl)-7-azabicyclo[2.2.1]heptan-7-yl)methanone]: the Ki at rat orexin 1 receptor (setting [1]) was determined as 2600 nM; on human orexin 2 receptor (hOX2 Ki (nm)) it was 4900 nM.
For `Cc1ccc(-n2nccn2)c(C(=O)N2C3CCC2C(COc2cnccn2)C3)n1` (racemic) [Example 60, (±)-(6-methyl-3-(2H-1,2,3-triazol-2-yl)pyridin-2-yl)(2-((pyrazin-2-yloxy)methyl)-7-azabicyclo[2.2.1]heptan-7-yl)methanone], in that order: 7800 nM and above 10000 nM.
`Cc1ccc(-n2nccn2)c(C(=O)N2C3CCC2C(COc2ccncn2)C3)n1` (racemic) [Example 61, (±)-(6-methyl-3-(2H-1,2,3-triazol-2-yl)pyridin-2-yl)(2-((pyrimidin-4-yloxy)methyl)-7-azabicyclo[2.2.1]heptan-7-yl)methanone]: the Ki at rat orexin 1 receptor (rOX1 Ki (nm)) is 2800 nM; on human orexin 2 receptor (hOX2 Ki (nm)), above 10000 nM.
On to `Cc1ccc(-c2ncccc2C)c(C(=O)N2C3CCC2C(COc2ccc(F)cn2)C3)n1` (racemic) [Example 65, (±)-(3,6′-dimethyl-[2,3′-bipyridin]-2′-yl)(2-(((5-fluoropyridin-2-yl)oxy)methyl)-7-azabicyclo[2.2.1]heptan-7-yl)methanone], for which the Ki stood at 1440 nM at rat orexin 1 receptor (rOX1 Ki (nm)) and 6200 nM on human orexin 2 receptor (setting [2]).
On to `Cc1cnc(C(=O)N2C3CCC2C(COc2ccccn2)C3)c(-n2nccn2)c1` (racemic) [Example 71, (±)-(5-methyl-3-(2H-1,2,3-triazol-2-yl)pyridin-2-yl)(2-((pyridin-2-yloxy)methyl)-7-azabicyclo[2.2.1]heptan-7-yl)methanone], for which the inhibition constant Ki at rat orexin 1 receptor (setting [1]) worked out at 1200 nM; on human orexin 2 receptor (setting [2]) it was 3700 nM.
The like results for `Cc1ccc(N(C)C)c(C(=O)N2C3CCC2C(COc2ccccn2)C3)n1` (racemic) [Example 73, (±)-(3-(dimethylamino)-6-methylpyridin-2-yl)(2-((pyridin-2-yloxy)methyl)-7-azabicyclo[2.2.1]heptan-7-yl)methanone] were, in that order, 278 nM and 7900 nM.
As for `O=C(c1nc2ccccc2cc1-n1nccn1)N1C2CCC1C(COc1ccccn1)C2` (racemic) [Example 74, (±)-(3-(2H-1,2,3-triazol-2-yl)quinolin-2-yl)(2-((pyridin-2-yloxy)methyl)-7-azabicyclo[2.2.1]heptan-7-yl)methanone], the Ki on rat orexin 1 receptor (rOX1 Ki (nm)) stood at 359 nM; at human orexin 2 receptor (setting [2]) it was 1700 nM.
Turning to `Cc1ccc2ncc(C)n2c1C(=O)N1C2CCC1C(COc1ccccn1)C2` (racemic) [Example 76, (±)-(3,6-dimethylimidazo[1,2-a]pyridin-5-yl)(2-((pyridin-2-yloxy)methyl)-7-azabicyclo[2.2.1]heptan-7-yl)methanone], the Ki on rat orexin 1 receptor (setting [1]) and on human orexin 2 receptor (setting [2]) was above 10000 nM throughout.
For the compound `Cn1cc(C(=O)N2C3CCC2C(COc2ccccn2)C3)c(-c2ccccc2)n1` (racemic) [Example 78, (±)-(1-methyl-3-phenyl-1H-pyrazol-4-yl)(2-((pyridin-2-yloxy)methyl)-7-azabicyclo[2.2.1]heptan-7-yl)methanone], the inhibitory constant (Ki) on rat orexin 1 receptor (setting [1]) is 418 nM; at human orexin 2 receptor (setting [2]), 3100 nM.
For `Cc1ccn2c(C)cnc2c1C(=O)N1C2CCC1C(COc1ccccn1)C2` (racemic) [Example 79, (±)-((3,7-dimethylimidazo[1,2-a]pyridin-8-yl)(2-((pyridin-2-yloxy)methyl)-7-azabicyclo[2.2.1]heptan-7-yl)methanone], in that order: 2400 nM and 8500 nM.
The like results for `Cc1ccn2ccnc2c1C(=O)N1C2CCC1C(COc1ccccn1)C2` (racemic) [Example 80, (±)-(7-methylimidazo[1,2-a]pyridin-8-yl)(2-((pyridin-2-yloxy)methyl)-7-azabicyclo[2.2.1]heptan-7-yl)methanone] were, in that order, 1100 nM and above 10000 nM.
Turning to `Cn1ncc(-c2ccccc2)c1C(=O)N1C2CCC1C(COc1ccccn1)C2` (racemic) [Example 81, (±)-(1-methyl-4-phenyl-1H-pyrazol-5-yl)(2-((pyridin-2-yloxy)methyl)-7-azabicyclo[2.2.1]heptan-7-yl)methanone], the Ki was 916 nM on rat orexin 1 receptor (setting [1]) and 2900 nM at human orexin 2 receptor (setting [2]).
The like results for `Cn1ncc(C(=O)N2C3CCC2C(COc2ccccn2)C3)c1-c1ccccc1` (racemic) [Example 84, (±)-(1-methyl-5-phenyl-1H-pyrazol-4-yl)(−2-((pyridin-2-yloxy)methyl)-7-azabicyclo[2.2.1]heptan-7-yl)methanone] were, in that order, 2600 nM and 9700 nM.
For `Cc1ccc(N2CCN(C)CC2)c(C(=O)N2C3CCC2C(COc2ccccn2)C3)n1` (racemic) [Example 85, (±)-(6-methyl-3-(4-methylpiperazin-1-yl)pyridin-2-yl)(2-((pyridin-2-yloxy)methyl)-7-azabicyclo[2.2.1]heptan-7-yl)methanone], in that order: above 10000 nM and above 10000 nM.
Take `Cc1ccc(N2CCNCC2)c(C(=O)N2C3CCC2C(COc2ccccn2)C3)n1` (racemic) [Example 86, (±)-(6-methyl-3-(piperazin-1-yl)pyridin-2-yl)(2-((pyridin-2-yloxy)methyl)-7-azabicyclo[2.2.1]heptan-7-yl)methanone]: the Ki at rat orexin 1 receptor (setting [1]) and on human orexin 2 receptor (hOX2 Ki (nm)) was above 10000 nM in each case.
With `Cc1ccc(N2CCOCC2)c(C(=O)N2[C@@H]3CC[C@H]2[C@H](COc2ccccn2)C3)n1` (racemic) [Example 87, (±)-(6-methyl-3-morpholinopyridin-2-yl)((1S,2R,4R)-2-((pyridin-2-yloxy)methyl)-7-azabicyclo[2.2.1]heptan-7-yl)methanone], the Ki was 4200 nM on rat orexin 1 receptor (setting [1]) and above 10000 nM on human orexin 2 receptor (hOX2 Ki (nm)).
The like results for `Cc1ccc(-c2ncccc2C)c(C(=O)N2C3CCC2C(COc2ccccn2)C3)n1` (racemic) [Example 90, (±)-(3,6′-dimethyl-[2,3′-bipyridin]-2′-yl)(2-((pyridin-2-yloxy)methyl)-7-azabicyclo[2.2.1]heptan-7-yl)methanone] were, in that order, 3000 nM and above 10000 nM.
Regarding `O=C(c1ncccc1-n1nccn1)N1C2CCC1C(COc1ccccn1)C2` (racemic) [Example 91, (±)-(3-(2H-1,2,3-triazol-2-yl)pyridin-2-yl)(2-((pyridin-2-yloxy)methyl)-7-azabicyclo[2.2.1]heptan-7-yl)methanone], the Ki at rat orexin 1 receptor (rOX1 Ki (nm)) came to 624 nM; at human orexin 2 receptor (setting [2]), 3300 nM.
`Cc1ccc(-n2cccn2)c(C(=O)N2C3CCC2C(COc2ccccn2)C3)n1` (racemic) [Example 95, (±)-(6-methyl-3-(1H-pyrazol-1-yl)pyridin-2-yl)(2-((pyridin-2-yloxy)methyl)-7-azabicyclo[2.2.1]heptan-7-yl)methanone]: the Ki at rat orexin 1 receptor (setting [1]) was determined as 247 nM; at human orexin 2 receptor (setting [2]), 3700 nM.
On to `Cc1ccc(-c2ncccc2C)c(C(=O)N2C3CCC2C(COc2ncc(F)cn2)C3)n1` (racemic) [Example 98, (±)-(3,6′-dimethyl-[2,3′-bipyridin]-2′-yl)(2-(((5-fluoropyrimidin-2-yl)oxy)methyl)-7-azabicyclo[2.2.1]heptan-7-yl)methanone], for which the Ki at rat orexin 1 receptor (setting [1]) and on human orexin 2 receptor (setting [2]) was above 10000 nM in each case.
As to `Cc1cc(-c2ccc(C)nc2C(=O)N2C3CCC2C(COc2ncc(F)cn2)C3)on1` (racemic) [Example 99, (±)-(2-(((5-fluoropyrimidin-2-yl)oxy)methyl)-7-azabicyclo[2.2.1]heptan-7-yl)(6-methyl-3-(3-methylisoxazol-5-yl)pyridin-2-yl)methanone], the Ki at rat orexin 1 receptor (rOX1 Ki (nm)) was 1500 nM; at human orexin 2 receptor (setting [2]), 2900 nM.

The term Ki denotes a dissociation constant, usually derived from enzyme kinetics or from competition with a known ligand.

Values taken from US9062078B2, “Substituted 7-azabicyles and their use as orexin receptor modulators” (priority 2013, dated 2015).
